# Experiments:
# Test in all cases: relative viability (nuclei count vs DMSO), 5 days (fraction); higher = more cells survive
# Dinaciclib = compound: CCc1cnn2c(NCc3ccc[n+]([O-])c3)cc(N3CCCC[C@H]3CCO)nc12 [Dinaciclib]
# Method in brief: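 After an overnight hold at 37 °C, lung cancer cell lines in 1536-well plates were pinned with five library-drug doses (not always all listed), each √10 from the next, on vehicle-anchored plates. The cells stayed 5 days without fresh medium, then a one-step fix, permeabilisation and Hoechst stain preceded 4× imaging and MetaXpress nuclear counts. A plate passed only with control CV under 25% and at least one doubling. Viability is the median, over plates, of treated-well nuclei relative to vehicle-well nuclei.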
# Dinaciclib + Phenformin = compound: CCc1cnn2c(NCc3ccc[n+]([O-])c3)cc(N3CCCC[C@H]3CCO)nc12 [Dinaciclib] + N=C(N)NC(=N)NCCc1ccccc1 [Phenformin] (partner 250 µM)
# Method in brief: (§1)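 Five library-drug doses in √10 steps were combined with a fixed anchor-drug dose, or a single drug was given alone, by pin tool to lung cancer cell lines in 1536-well plates the day after seeding. Nuclei were stained and counted after 5 days. Relative viability is the nuclei count in treated wells over that in vehicle wells, taken as the median of duplicate plates.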
# Dinaciclib + Foretinib = compound: CCc1cnn2c(NCc3ccc[n+]([O-])c3)cc(N3CCCC[C@H]3CCO)nc12 [Dinaciclib] + COc1cc2c(Oc3ccc(NC(=O)C4(C(=O)Nc5ccc(F)cc5)CC4)cc3F)ccnc2cc1OCCCN1CCOCC1 [Foretinib] (partner 0.25 µM)
# Method in brief: as §1
# Dinaciclib + Dasatinib = compound: CCc1cnn2c(NCc3ccc[n+]([O-])c3)cc(N3CCCC[C@H]3CCO)nc12 [Dinaciclib] + Cc1nc(Nc2ncc(C(=O)Nc3c(C)cccc3Cl)s2)cc(N2CCN(CCO)CC2)n1 [Dasatinib] (partner 0.075 µM)
# Method in brief: as §1
# Dinaciclib + Luminespib = compound: CCc1cnn2c(NCc3ccc[n+]([O-])c3)cc(N3CCCC[C@H]3CCO)nc12 [Dinaciclib] + CCNC(=O)c1noc(-c2cc(C(C)C)c(O)cc2O)c1-c1ccc(CN2CCOCC2)cc1 [Luminespib] (partner 0.01 µM)
# Method in brief: as §1
# Dinaciclib + Tozasertib = compound: CCc1cnn2c(NCc3ccc[n+]([O-])c3)cc(N3CCCC[C@H]3CCO)nc12 [Dinaciclib] + Cc1cc(Nc2cc(N3CCN(C)CC3)nc(Sc3ccc(NC(=O)C4CC4)cc3)n2)n[nH]1 [Tozasertib] (partner 0.1 µM)
# Method in brief: as §1
# Dinaciclib + OSI-027 = compound: CCc1cnn2c(NCc3ccc[n+]([O-])c3)cc(N3CCCC[C@H]3CCO)nc12 [Dinaciclib] + COc1cccc2cc(-c3nc([C@H]4CC[C@H](C(=O)O)CC4)n4ncnc(N)c34)[nH]c12 [OSI-027] (partner 0.5 µM)
# Method in brief: as §1
# Dinaciclib + Pictilisib = compound: CCc1cnn2c(NCc3ccc[n+]([O-])c3)cc(N3CCCC[C@H]3CCO)nc12 [Dinaciclib] + CS(=O)(=O)N1CCN(Cc2cc3nc(-c4cccc5[nH]ncc45)nc(N4CCOCC4)c3s2)CC1 [Pictilisib] (partner 1 µM)
# Method in brief: as §1
# Dinaciclib + Navitoclax = compound: CCc1cnn2c(NCc3ccc[n+]([O-])c3)cc(N3CCCC[C@H]3CCO)nc12 [Dinaciclib] + CC1(C)CCC(c2ccc(Cl)cc2)=C(CN2CCN(c3ccc(C(=O)NS(=O)(=O)c4ccc(N[C@H](CCN5CCOCC5)CSc5ccccc5)c(S(=O)(=O)C(F)(F)F)c4)cc3)CC2)C1 [Navitoclax] (partner 0.5 µM)
# Method in brief: as §1
# Dinaciclib + Olaparib = compound: CCc1cnn2c(NCc3ccc[n+]([O-])c3)cc(N3CCCC[C@H]3CCO)nc12 [Dinaciclib] + O=C(c1cc(Cc2n[nH]c(=O)c3ccccc23)ccc1F)N1CCN(C(=O)C2CC2)CC1 [Olaparib] (partner 8 µM)
# Method in brief: as §1
# Dinaciclib + Lapatinib = compound: CCc1cnn2c(NCc3ccc[n+]([O-])c3)cc(N3CCCC[C@H]3CCO)nc12 [Dinaciclib] + CS(=O)(=O)CCNCc1ccc(-c2ccc3ncnc(Nc4ccc(OCc5cccc(F)c5)c(Cl)c4)c3c2)o1 [Lapatinib] (partner 2 µM)
# Method in brief: as §1
# Dinaciclib + Crizotinib = compound: CCc1cnn2c(NCc3ccc[n+]([O-])c3)cc(N3CCCC[C@H]3CCO)nc12 [Dinaciclib] + C[C@@H](Oc1cc(-c2cnn(C3CCNCC3)c2)cnc1N)c1c(Cl)ccc(F)c1Cl [Crizotinib] (partner 1 µM)
# Method in brief: as §1
# Dinaciclib + Linsitinib = compound: CCc1cnn2c(NCc3ccc[n+]([O-])c3)cc(N3CCCC[C@H]3CCO)nc12 [Dinaciclib] + C[C@]1(O)C[C@@H](c2nc(-c3ccc4ccc(-c5ccccc5)nc4c3)c3c(N)nccn32)C1 [Linsitinib] (partner 1 µM)
# Method in brief: as §1
# Dinaciclib + Decitabine = compound: CCc1cnn2c(NCc3ccc[n+]([O-])c3)cc(N3CCCC[C@H]3CCO)nc12 [Dinaciclib] + Nc1ncn([C@H]2C[C@H](O)[C@@H](CO)O2)c(=O)n1 [Decitabine] (partner 2 µM)
# Method in brief: as §1
# Dinaciclib + Alpelisib = compound: CCc1cnn2c(NCc3ccc[n+]([O-])c3)cc(N3CCCC[C@H]3CCO)nc12 [Dinaciclib] + Cc1nc(NC(=O)N2CCC[C@H]2C(N)=O)sc1-c1ccnc(C(C)(C)C(F)(F)F)c1 [Alpelisib] (partner 2 µM)
# Method in brief: as §1
# Dinaciclib + Bortezomib = compound: CCc1cnn2c(NCc3ccc[n+]([O-])c3)cc(N3CCCC[C@H]3CCO)nc12 [Dinaciclib] + CC(C)C[C@H](NC(=O)[C@H](Cc1ccccc1)NC(=O)c1cnccn1)B(O)O [Bortezomib] (partner 0.002 µM)
# Method in brief: as §1
cell line,measurement,setting,value
NCI-H1623,relative viability,Dinaciclib; 0.009487 µM,1.02
same,relative viability,Dinaciclib; 0.03 µM,0.332
same,relative viability,Dinaciclib; 0.09487 µM,0.26
same,relative viability,Dinaciclib; 0.3 µM,0.196
same,relative viability,Dinaciclib + Phenformin; first compound 0.009487 µM,0.609
same,relative viability,Dinaciclib + Phenformin; first compound 0.03 µM,0.259
same,relative viability,Dinaciclib + Phenformin; first compound 0.09487 µM,0.213
same,relative viability,Dinaciclib + Phenformin; first compound 0.3 µM,0.225
same,relative viability,Dinaciclib + Foretinib; first compound 0.009487 µM,0.831
same,relative viability,Dinaciclib + Foretinib; first compound 0.03 µM,0.273
same,relative viability,Dinaciclib + Foretinib; first compound 0.09487 µM,0.235
same,relative viability,Dinaciclib + Foretinib; first compound 0.3 µM,0.234
same,relative viability,Dinaciclib + Dasatinib; first compound 0.009487 µM,0.518
same,relative viability,Dinaciclib + Dasatinib; first compound 0.03 µM,0.36
same,relative viability,Dinaciclib + Dasatinib; first compound 0.09487 µM,0.207
same,relative viability,Dinaciclib + Dasatinib; first compound 0.3 µM,0.231
same,relative viability,Dinaciclib + Luminespib; first compound 0.009487 µM,0.428
same,relative viability,Dinaciclib + Luminespib; first compound 0.03 µM,0.262
same,relative viability,Dinaciclib + Luminespib; first compound 0.09487 µM,0.132
same,relative viability,Dinaciclib + Luminespib; first compound 0.3 µM,0.144
same,relative viability,Dinaciclib + Tozasertib; first compound 0.009487 µM,0.437
same,relative viability,Dinaciclib + Tozasertib; first compound 0.03 µM,0.249
same,relative viability,Dinaciclib + Tozasertib; first compound 0.09487 µM,0.207
same,relative viability,Dinaciclib + Tozasertib; first compound 0.3 µM,0.193
same,relative viability,Dinaciclib + OSI-027; first compound 0.009487 µM,0.397
same,relative viability,Dinaciclib + OSI-027; first compound 0.03 µM,0.236
same,relative viability,Dinaciclib + OSI-027; first compound 0.09487 µM,0.231
same,relative viability,Dinaciclib + OSI-027; first compound 0.3 µM,0.2
A549,relative viability,Dinaciclib; 0.009487 µM,0.968
same,relative viability,Dinaciclib; 0.03 µM,0.32
same,relative viability,Dinaciclib; 0.09487 µM,0.0405
same,relative viability,Dinaciclib; 0.3 µM,0.046
same,relative viability,Dinaciclib + Pictilisib; first compound 0.009487 µM,0.375
same,relative viability,Dinaciclib + Pictilisib; first compound 0.03 µM,0.0566
same,relative viability,Dinaciclib + Pictilisib; first compound 0.09487 µM,0.0629
same,relative viability,Dinaciclib + Pictilisib; first compound 0.3 µM,0.0604
same,relative viability,Dinaciclib + Navitoclax; first compound 0.009487 µM,1.05
same,relative viability,Dinaciclib + Navitoclax; first compound 0.03 µM,0.0352
same,relative viability,Dinaciclib + Navitoclax; first compound 0.09487 µM,0.038
same,relative viability,Dinaciclib + Navitoclax; first compound 0.3 µM,0.0398
same,relative viability,Dinaciclib + Phenformin; first compound 0.009487 µM,0.174
same,relative viability,Dinaciclib + Phenformin; first compound 0.03 µM,0.0204
same,relative viability,Dinaciclib + Phenformin; first compound 0.09487 µM,0.035
same,relative viability,Dinaciclib + Phenformin; first compound 0.3 µM,0.0274
same,relative viability,Dinaciclib + Foretinib; first compound 0.009487 µM,0.952
same,relative viability,Dinaciclib + Foretinib; first compound 0.03 µM,0.0544
same,relative viability,Dinaciclib + Foretinib; first compound 0.09487 µM,0.0214
same,relative viability,Dinaciclib + Foretinib; first compound 0.3 µM,0.0246
same,relative viability,Dinaciclib + Olaparib; first compound 0.009487 µM,0.276
same,relative viability,Dinaciclib + Olaparib; first compound 0.03 µM,0.0567
same,relative viability,Dinaciclib + Olaparib; first compound 0.09487 µM,0.0423
same,relative viability,Dinaciclib + Olaparib; first compound 0.3 µM,0.0382
same,relative viability,Dinaciclib + Lapatinib; first compound 0.009487 µM,0.85
same,relative viability,Dinaciclib + Lapatinib; first compound 0.03 µM,0.0505
same,relative viability,Dinaciclib + Lapatinib; first compound 0.09487 µM,0.0627
same,relative viability,Dinaciclib + Lapatinib; first compound 0.3 µM,0.0615
same,relative viability,Dinaciclib + Crizotinib; first compound 0.009487 µM,0.724
same,relative viability,Dinaciclib + Crizotinib; first compound 0.03 µM,0.365
same,relative viability,Dinaciclib + Crizotinib; first compound 0.09487 µM,0.0408
same,relative viability,Dinaciclib + Crizotinib; first compound 0.3 µM,0.05
same,relative viability,Dinaciclib + Linsitinib; first compound 0.009487 µM,0.561
same,relative viability,Dinaciclib + Linsitinib; first compound 0.03 µM,0.165
same,relative viability,Dinaciclib + Linsitinib; first compound 0.09487 µM,0.0454
same,relative viability,Dinaciclib + Linsitinib; first compound 0.3 µM,0.0453
same,relative viability,Dinaciclib + Decitabine; first compound 0.009487 µM,0.293
same,relative viability,Dinaciclib + Decitabine; first compound 0.03 µM,0.205
same,relative viability,Dinaciclib + Decitabine; first compound 0.09487 µM,0.0304
same,relative viability,Dinaciclib + Decitabine; first compound 0.3 µM,0.0308
same,relative viability,Dinaciclib + Alpelisib; first compound 0.009487 µM,0.686
same,relative viability,Dinaciclib + Alpelisib; first compound 0.03 µM,0.0411
same,relative viability,Dinaciclib + Alpelisib; first compound 0.09487 µM,0.0487
same,relative viability,Dinaciclib + Alpelisib; first compound 0.3 µM,0.0518
NCI-H1299,relative viability,Dinaciclib; 0.009487 µM,0.98
same,relative viability,Dinaciclib; 0.03 µM,0.371
same,relative viability,Dinaciclib; 0.09487 µM,0.121
same,relative viability,Dinaciclib; 0.3 µM,0.0997
same,relative viability,Dinaciclib + Bortezomib; first compound 0.009487 µM,1.05
same,relative viability,Dinaciclib + Bortezomib; first compound 0.03 µM,0.216
same,relative viability,Dinaciclib + Bortezomib; first compound 0.09487 µM,0.142
same,relative viability,Dinaciclib + Bortezomib; first compound 0.3 µM,0.135
same,relative viability,Dinaciclib + Pictilisib; first compound 0.009487 µM,0.416
same,relative viability,Dinaciclib + Pictilisib; first compound 0.03 µM,0.0311
same,relative viability,Dinaciclib + Pictilisib; first compound 0.09487 µM,0.0181
same,relative viability,Dinaciclib + Pictilisib; first compound 0.3 µM,0.0214
same,relative viability,Dinaciclib + Navitoclax; first compound 0.009487 µM,1.12
same,relative viability,Dinaciclib + Navitoclax; first compound 0.03 µM,0.27
same,relative viability,Dinaciclib + Navitoclax; first compound 0.09487 µM,0.107
same,relative viability,Dinaciclib + Navitoclax; first compound 0.3 µM,0.107
same,relative viability,Dinaciclib + Foretinib; first compound 0.009487 µM,0.986
same,relative viability,Dinaciclib + Foretinib; first compound 0.03 µM,0.202
same,relative viability,Dinaciclib + Foretinib; first compound 0.09487 µM,0.104
same,relative viability,Dinaciclib + Foretinib; first compound 0.3 µM,0.088
same,relative viability,Dinaciclib + Olaparib; first compound 0.009487 µM,0.962
same,relative viability,Dinaciclib + Olaparib; first compound 0.03 µM,0.16
same,relative viability,Dinaciclib + Olaparib; first compound 0.09487 µM,0.0946
same,relative viability,Dinaciclib + Olaparib; first compound 0.3 µM,0.104
same,relative viability,Dinaciclib + Lapatinib; first compound 0.009487 µM,0.824
same,relative viability,Dinaciclib + Lapatinib; first compound 0.03 µM,0.198
same,relative viability,Dinaciclib + Lapatinib; first compound 0.09487 µM,0.137
same,relative viability,Dinaciclib + Lapatinib; first compound 0.3 µM,0.124
same,relative viability,Dinaciclib + Crizotinib; first compound 0.009487 µM,0.709
same,relative viability,Dinaciclib + Crizotinib; first compound 0.03 µM,0.681
same,relative viability,Dinaciclib + Crizotinib; first compound 0.09487 µM,0.144
same,relative viability,Dinaciclib + Crizotinib; first compound 0.3 µM,0.111
same,relative viability,Dinaciclib + Linsitinib; first compound 0.009487 µM,0.883
same,relative viability,Dinaciclib + Linsitinib; first compound 0.03 µM,0.24
same,relative viability,Dinaciclib + Linsitinib; first compound 0.09487 µM,0.103
same,relative viability,Dinaciclib + Linsitinib; first compound 0.3 µM,0.0705
same,relative viability,Dinaciclib + Alpelisib; first compound 0.009487 µM,1.09
same,relative viability,Dinaciclib + Alpelisib; first compound 0.03 µM,0.821
same,relative viability,Dinaciclib + Alpelisib; first compound 0.09487 µM,0.15
same,relative viability,Dinaciclib + Alpelisib; first compound 0.3 µM,0.188

# Reference: the supplement of paper PMC10307832
